Test results: US20230286973A1, “PROTEIN SECRETION INHIBITORS” (KEZAR LIFE SCIENCES, priority 2020, published 2023)

Experiments:
[1] = system: PD1-ss+10aa/Gaussia Luciferase; assay: Dox-Induced PD1-ss-Gluc Assay; type: cell-based; conditions: 24 hr Dox induction; 293FRT/TO cells; mean; read-out: 24 hr Dox Inducible PD1ssGluc 293FRT/TO: Mean IC50
Summary of the method: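 Gaussia luciferase fused downstream of the PD1 signal peptide plus 10 residues was expressed on doxycycline induction in stably transfected Flp-In 293 T-REx cells. Compounds were added with doxycycline and incubated at 37 °C, 5% CO2.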

[2] = system: TNFα-FL/Gaussia Luciferase; assay: Dox Induced TNFα-FL-Gluc Assay; type: cell-based; conditions: for IC50: 24 hr Dox induction, 293FRT/TO cells, mean, read-out: 24 hr Dox Inducible TNFaFLGluc 293FRT/TO: Mean IC50; for 24 hr Dox Inducible TNFaFLGluc 293FRT/TO: TNF/PD1: ratio of TNFaFLGluc IC50 to PD1ssGluc IC50, '<=>' given where both are I.A.
Summary of the method: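 Flp-In 293 T-REx cells stably carrying doxycycline-inducible full-length TNFα (aa 1-233) fused to Gaussia luciferase. Plated the day before, then treated with compound dilutions in doxycycline-containing medium at 37° C, 5% CO2.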

[3] = system: HER3-ss+4aa/Gaussia Luciferase; assay: Dox-Induced Her3-ss-Gluc Assay; type: cell-based; conditions: 24 hr Dox induction; 293FRT/TO cells; mean; read-out: 24 hr Dox Inducible Her3(ss + 4)Gluc 293FRT/TO: Mean IC50
Summary of the method: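 Stable Flp-In 293 T-REx cells carried a doxycycline-inducible HER3 signal sequence (+4 aa) fused to Gaussia luciferase. Cells were plated the day before the assay. Compound dilutions in DMSO/media containing doxycycline were then added, and plates were incubated at 37 °C, 5% CO2.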

[4] = system: IL-2-FL/Gaussia Luciferase; assay: Dox Induced IL2-FL-Gluc Assay; type: cell-based; conditions: for IC50: 24 hr Dox induction, 293FRT/TO cells, mean, read-out: 24 hr Dox Inducible IL2FLGluc 293FRT/TO: Mean IC50; for 24 hr Dox Inducible IL2FLGluc 293FRT/TO: IL2/PD1: ratio of IL2FLGluc IC50 to PD1ssGluc IC50, '<=>' given where both are I.A.
Summary of the method: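 Stable Flp-In 293 T-REx cells carrying doxycycline-inducible full-length IL-2 (aa 1-153) fused to Gaussia luciferase, plated the day before assay. Compound dilutions added in medium containing doxycycline, incubated at 37 °C, 5% CO2. Undefined stereocentres mean data refer to stereoisomer mixtures.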

[5] = system: multiple myeloma cell line NCI-H929; assay: H929 Cell Viability Assay; type: cell-based, human; conditions: Homo sapiens, NCI-H929, 48 h, NCI-H929 cells, Celltiter-Glo
Summary of the method: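 NCI-H929 cells in RPMI 1640 with 10% FBS were treated with compound dilutions for 48 h at 37° C, 5% CO2. Viability was read by CellTiter-Glo luminescence. Undefined stereocentres denote stereoisomer mixtures.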

[6] = system: multiple myeloma cell line U266B1; assay: U266 Cell Viability Assay; type: cell-based, human; conditions: Homo sapiens, U-266, 48 h, U266B1 cells, Celltiter-Glo
Summary of the method: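 U266B1 multiple myeloma cells in RPMI 1640/10% FBS were treated with compound dilutions for 48 h at 37 °C, 5% CO2. Viability was measured by CellTiter-Glo luminescence; compounds drawn without stereochemistry were tested as stereoisomer mixtures.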

[7] = Liver Microsome Stability Assay (rat); conditions: rat liver microsomes, with NADPH, 1.0 uM compound
Experimental: (§1) Stability of a compound was assessed in the presence of liver microsomes from various sources—mouse, rat, monkey and human liver microsomes. 1.0 uM compound, 0.4% DMSO in 0.1 M Potassium Phosphate with 1.0 mg/mL liver microsomes, were incubated at 37° C. with or without 1 mM NADPH. The samples were quenched at 0, and 30 minutes.

[8] = Liver Microsome Stability Assay (mouse); conditions: mouse liver microsomes, with NADPH, 1.0 uM compound
Experimental: as §1

[9] = Liver Microsome Stability Assay (human); conditions: human liver microsomes, with NADPH, 1.0 uM compound
Experimental: as §1

[10] = Liver Microsome Stability Assay (monkey); conditions: monkey liver microsomes, with NADPH, 1.0 uM compound
Experimental: as §1

Row | IC50 [1] | IC50 [2] | IC50 [3] | IC50 [4] | EC50 [5] | EC50 [6] | Liver Microsome Stability (Multiple Species): Rat - % Remaining after 30 min w/NADPH [7] | Liver Microsome Stability (Multiple Species): Mouse - % Remaining after 30 min w/NADPH [8] | Liver Microsome Stability (Multiple Species): Human - % Remaining after 30 min w/NADPH [9] | Liver Microsome Stability (Multiple Species): Monkey - % Remaining after 30 min w/NADPH [10] | Compound | 24 hr Dox Inducible TNFaFLGluc 293FRT/TO: TNF/PD1 [2] | 24 hr Dox Inducible IL2FLGluc 293FRT/TO: IL2/PD1 [4]
1 | 0.0234 µM | 4.85 µM | 0.409 µM | 0.53 µM | 7.34 µM | > 25 µM | 35.4% | 28.6% | 17.5% | 13.5% | C/C(=C\c1ccc(OC(F)(F)F)cn1)c1csc(NC(=O)c2cccn2Cc2ccncc2)n1 [Compound E2, (E)-1-(pyridin-4-ylmethyl)-N-(4-(1-(5-(trifluoromethoxy)pyridin-2-yl)prop-1-en-2-yl)thiazol-2-yl)-1H-pyrrole-2-carboxamide] | 208 | 23
2 | 0.125 µM | > 25 µM | 1.06 µM | 1.23 µM | 8.09 µM | 19.6 µM | 46.1% | 16.7% | 5.77% | 2.47% | C/C(=C\c1csc(NC(=O)c2cccn2Cc2ccncc2)n1)c1ccc(OC(F)(F)F)cn1 [Compound E5, (E)-1-(pyridin-4-ylmethyl)-N-(4-(2-(5-(trifluoromethoxy)pyridin-2-yl)prop-1-en-1-yl)thiazol-2-yl)-1H-pyrrole-2-carboxamide] | >199 | 9.8
3 | 0.158 µM | 2.76 µM | 0.947 µM | 1.19 µM | > 25 µM | > 25 µM | 0.28% | 0.38% | 0.1% | 0.23% | O=C(Nc1nc(CCc2ccc(OC(F)(F)F)cn2)cs1)c1cccn1Cc1ccncc1 [Compound E7, 1-(pyridin-4-ylmethyl)-N-(4-(2-(5-(trifluoromethoxy)pyridin-2-yl)ethyl)thiazol-2-yl)-1H-pyrrole-2-carboxamide] | 17.4 | 7.5
4 | 2.18 µM | > 25 µM | 8.17 µM | 8.24 µM | > 25 µM | > 25 µM | 2.06% | 0.36% | 0.97% | 1.33% | O=C(Nc1nc(Cc2ccccn2)cs1)c1cccn1Cc1ccncc1 [Compound E11, N-(4-(pyridin-2-ylmethyl)thiazol-2-yl)-1-(pyridin-4-ylmethyl)-1H-pyrrole-2-carboxamide] | >11.4 | 3.8

The next lines start with the compound.

Row | Compound | IC50 [1] | IC50 [2] | IC50 [3] | IC50 [4] | EC50 [5] | EC50 [6] | Liver Microsome Stability (Multiple Species): Rat - % Remaining after 30 min w/NADPH [7] | Liver Microsome Stability (Multiple Species): Mouse - % Remaining after 30 min w/NADPH [8] | Liver Microsome Stability (Multiple Species): Human - % Remaining after 30 min w/NADPH [9] | Liver Microsome Stability (Multiple Species): Monkey - % Remaining after 30 min w/NADPH [10] | 24 hr Dox Inducible TNFaFLGluc 293FRT/TO: TNF/PD1 [2] | 24 hr Dox Inducible IL2FLGluc 293FRT/TO: IL2/PD1 [4]
5 | O=C(Nc1nc(C#Cc2ccccn2)cs1)c1cccn1Cc1ccncc1 [Compound E3, N-(4-(pyridin-2-ylethynyl)thiazol-2-yl)-1-(pyridin-4-ylmethyl)-1H-pyrrole-2-carboxamide] | 0.798 µM | > 25 µM | 7.18 µM | 13.1 µM | > 25 µM | > 25 µM | 0.35% | 2.41% | 0.35% | 0.6% | >31.3 | 16
6 | Cc1nc(CCc2csc(NC(=O)c3cccn3Cc3ccncc3)n2)co1 [Compound E4] | 0.439 µM | > 25 µM | 5.08 µM | 5.2 µM | > 25 µM | > 25 µM | 0.19% | 0.27% | 0.12% | 0.14% | >57.0 | 12
7 | O=C(Nc1nc(CCC2CCCCO2)cs1)c1cccn1Cc1ccncc1 (stereo not drawn) [Compound E6, 1-(pyridin-4-ylmethyl)-N-(4-(2-(tetrahydro-2H-pyran-2-yl)ethyl)thiazol-2-yl)-1H-pyrrole-2-carboxamide] | 0.208 µM | 6.04 µM | 1.28 µM | 1.78 µM | 24.2 µM | > 25 µM | 0.75% | 1.82% | 0.67% | 0.57% | 29.1 | 8.6
8 | O=C(Nc1nc(CCc2ccccn2)cs1)c1cccn1Cc1ccncc1 [Compound E8, N-(4-(2-(pyridin-2-yl)ethyl)thiazol-2-yl)-1-(pyridin-4-ylmethyl)-1H-pyrrole-2-carboxamide] | 0.695 µM | > 25 µM | 4.96 µM | 5.05 µM | > 25 µM | > 25 µM | 2.86% | 0.6% | 0.01% | 0.02% | >35.9 | 7.3
9 | O=C(Nc1nc(CC2CCCCO2)cs1)c1cccn1Cc1ccncc1 (stereo not drawn) [Compound E9, 1-(pyridin-4-ylmethyl)-N-(4-((tetrahydro-2H-pyran-2-yl)methyl)thiazol-2-yl)-1H-pyrrole-2-carboxamide] | 0.775 µM | 19.5 µM | 3.92 µM | 3.64 µM | > 25 µM | > 25 µM | 4.69% | 19% | 0.86% | 2.42% | 25.1 | 4.7
10 | O=C(Nc1nc([C@H]2CCCN2c2ccccc2)cs1)c1cccn1CCCc1cccnc1 [Compound E10, (R)-N-(4-(1-phenylpyrrolidin-2-yl)thiazol-2-yl)-1-(3-(pyridin-3-yl)propyl)-1H-pyrrole-2-carboxamide] | 5.76 µM | > 25 µM | 4.93 µM | 5.41 µM | > 25 µM | > 25 µM | 0.39% | 0.46% | 0.37% | 0.06% | >4.34 | 0.94
